The source made the active and inactive calls. How the calls were made is not given here.
Tested on: rodent lifetime carcinogenesis bioassay, tumor incidence TD50
Test: chronic cancer bioassays in animals – CPDB, compiled studies (AID 1745844)

ClC=CCCl
TD50 (mouse, strain B6C3F1, females, by gavage, site: any site (literature study), lesion: several types, types named in the paper, dosed 104 weeks, study length 106 weeks): 34.9 mg/kg/day
TD50 (mouse, strain B6C3F1, females, by gavage, site: liver, lesion: hepatocellular adenoma + hepatocellular carcinoma + neoplastic nodule, dosed 104 weeks, study length 106 weeks): 89.3 mg/kg/day
TD50 (mouse, strain B6C3F1, females, by gavage, site: liver, lesion: hepatocellular adenoma + hepatocellular carcinoma, dosed 104 weeks, study length 106 weeks): 89.3 mg/kg/day
TD50 (mouse, strain B6C3F1, females, by gavage, site: liver, lesion: hepatocellular adenoma, dosed 104 weeks, study length 106 weeks): 215 mg/kg/day
TD50 (mouse, strain B6C3F1, females, by gavage, site: lung + stomach + urinary bladder, lesion: alveolar/bronchiolar adenoma + squamous-cell carcinoma + squamous-cell papilloma + transitional-cell carcinoma, dosed 104 weeks, study length 106 weeks): 36.3 mg/kg/day
TD50 (mouse, strain B6C3F1, females, by gavage, site: lung, lesion: alveolar/bronchiolar adenoma + alveolar/bronchiolar carcinoma, dosed 104 weeks, study length 106 weeks): 182 mg/kg/day
TD50 (mouse, strain B6C3F1, females, by gavage, site: lung, lesion: alveolar/bronchiolar adenoma, dosed 104 weeks, study length 106 weeks): 149 mg/kg/day
TD50 (mouse, strain B6C3F1, females, by gavage, site: stomach, lesion: squamous-cell carcinoma + squamous-cell papilloma, dosed 104 weeks, study length 106 weeks): 344 mg/kg/day
TD50 (mouse, strain B6C3F1, females, by gavage, site: urinary bladder, lesion: transitional-cell carcinoma, dosed 104 weeks, study length 106 weeks): 49.6 mg/kg/day
carcinogen call (mouse, strain B6C3F1, females, in feed, site: liver, lesion: hepatocellular adenoma, dosed 104 weeks, study length 104 weeks): negative (inactive)
carcinogen call (mouse, strain B6C3F1, females, in feed, site: liver, lesion: hepatocellular carcinoma, dosed 104 weeks, study length 104 weeks): negative (inactive)
carcinogen call (mouse, strain B6C3F1, females, in feed, site: lung, lesion: alveolar/bronchiolar adenoma, dosed 104 weeks, study length 104 weeks): negative (inactive)
carcinogen call (mouse, strain B6C3F1, females, in feed, site: lung, lesion: alveolar/bronchiolar carcinoma, dosed 104 weeks, study length 104 weeks): negative (inactive)
carcinogen call (mouse, strain B6C3F1, females, in feed, site: stomach, lesion: one or several types, types not named, dosed 52 weeks, study length 52 weeks): negative (inactive)
carcinogen call (mouse, strain B6C3F1, females, inhaled, site: any site (literature study), lesion: several types, types named in the paper, dosed 104 weeks, study length 104 weeks): negative (inactive)
TD50 (mouse, strain B6C3F1, females, inhaled, site: liver, lesion: several types, types named in the paper, dosed 104 weeks, study length 104 weeks): 1810 mg/kg/day (inactive)
carcinogen call (mouse, strain B6C3F1, females, inhaled, site: lung, lesion: alveolar/bronchiolar adenoma, dosed 104 weeks, study length 104 weeks): negative (inactive)
carcinogen call (mouse, strain B6C3F1, females, inhaled, site: lung, lesion: one or several types, types not named, dosed 52 weeks, study length 52 weeks): negative (inactive)
carcinogen call (mouse, strain B6C3F1, females, inhaled, site: mesenteric lymph node, lesion: lymphosarcoma, dosed 104 weeks, study length 104 weeks): negative (inactive)
TD50 (mouse, strain B6C3F1, females, inhaled, site: pituitary gland, lesion: adenoma, dosed 104 weeks, study length 104 weeks): 19 mg/kg/day (inactive)
TD50 (mouse, strain B6C3F1, males, by gavage, site: any site (literature study), lesion: several types, types named in the paper, dosed 104 weeks, study length 105 weeks): 309 mg/kg/day
TD50 (mouse, strain B6C3F1, males, by gavage, site: liver, lesion: hepatocellular adenoma + hepatocellular carcinoma + neoplastic nodule, dosed 104 weeks, study length 105 weeks): 1930 mg/kg/day
TD50 (mouse, strain B6C3F1, males, by gavage, site: lung, lesion: alveolar/bronchiolar adenoma + alveolar/bronchiolar carcinoma, dosed 104 weeks, study length 105 weeks): 127 mg/kg/day
TD50 (mouse, strain B6C3F1, males, in feed, site: liver, lesion: hepatocellular adenoma, dosed 104 weeks, study length 104 weeks): 78.2 mg/kg/day (inactive)
carcinogen call (mouse, strain B6C3F1, males, in feed, site: liver, lesion: hepatocellular carcinoma, dosed 104 weeks, study length 104 weeks): negative (inactive)
TD50 (mouse, strain B6C3F1, males, in feed, site: lung, lesion: alveolar/bronchiolar adenoma, dosed 104 weeks, study length 104 weeks): 368 mg/kg/day (inactive)
carcinogen call (mouse, strain B6C3F1, males, in feed, site: lung, lesion: alveolar/bronchiolar carcinoma, dosed 104 weeks, study length 104 weeks): negative (inactive)
carcinogen call (mouse, strain B6C3F1, males, in feed, site: stomach, lesion: one or several types, types not named, dosed 52 weeks, study length 52 weeks): negative (inactive)
TD50 (mouse, strain B6C3F1, males, inhaled, site: any site (literature study), lesion: several types, types named in the paper, dosed 104 weeks, study length 104 weeks): 229 mg/kg/day
TD50 (mouse, strain B6C3F1, males, inhaled, site: lacrimal gland, lesion: cystadenoma, dosed 104 weeks, study length 104 weeks): 82.2 mg/kg/day
TD50 (mouse, strain B6C3F1, males, inhaled, site: lung, lesion: alveolar/bronchiolar adenoma, dosed 104 weeks, study length 104 weeks): 118 mg/kg/day
carcinogen call (mouse, strain B6C3F1, males, inhaled, site: lung, lesion: one or several types, types not named, dosed 52 weeks, study length 52 weeks): negative (inactive)
TD50 (rat, strain Fischer 344, females, by gavage, site: liver, lesion: hepatocellular adenoma + hepatocellular carcinoma + neoplastic nodule, dosed 104 weeks, study length 106 weeks): 168 mg/kg/day
TD50 (rat, strain Fischer 344, females, by gavage, site: stomach, lesion: squamous-cell papilloma, dosed 104 weeks, study length 106 weeks): 176 mg/kg/day
TD50 (rat, strain Fischer 344, females, by gavage, site: thyroid gland, lesion: follicular-cell adenoma + follicular-cell carcinoma, dosed 104 weeks, study length 106 weeks): 137 mg/kg/day
TD50 (rat, strain Fischer 344, females, in feed, site: liver, lesion: hepatocellular adenoma, dosed 104 weeks, study length 104 weeks): 334 mg/kg/day
carcinogen call (rat, strain Fischer 344, females, in feed, site: stomach, lesion: one or several types, types not named, dosed 52 weeks, study length 52 weeks): negative (inactive)
TD50 (rat, strain Fischer 344, females, in feed, site: uterus, lesion: endometrial stromal polyp, dosed 104 weeks, study length 104 weeks): 61.4 mg/kg/day
carcinogen call (rat, strain Fischer 344, females, inhaled, site: any site (literature study), lesion: one or several types, types not named, dosed 52 weeks, study length 52 weeks): negative (inactive)
carcinogen call (rat, strain Fischer 344, females, inhaled, site: any site (literature study), lesion: several types, types named in the paper, dosed 105 weeks, study length 105 weeks): negative (inactive)
TD50 (rat, strain Fischer 344, females, inhaled, site: liver, lesion: hepatocellular adenoma, dosed 105 weeks, study length 105 weeks): 1590 mg/kg/day (inactive)
TD50 (rat, strain Fischer 344, males, by gavage, site: forestomach + liver + stomach, lesion: squamous-cell papilloma + neoplastic nodule + squamous-cell carcinoma, dosed 104 weeks, study length 106 weeks): 33.2 mg/kg/day
TD50 (rat, strain Fischer 344, males, by gavage, site: forestomach + stomach, lesion: squamous-cell papilloma + squamous-cell carcinoma, dosed 104 weeks, study length 106 weeks): 64.1 mg/kg/day
TD50 (rat, strain Fischer 344, males, by gavage, site: forestomach + stomach, lesion: squamous-cell papilloma, dosed 104 weeks, study length 106 weeks): 97 mg/kg/day
TD50 (rat, strain Fischer 344, males, by gavage, site: liver, lesion: hepatocellular adenoma + hepatocellular carcinoma + neoplastic nodule, dosed 104 weeks, study length 106 weeks): 68 mg/kg/day
TD50 (rat, strain Fischer 344, males, by gavage, site: liver, lesion: hepatocellular carcinoma + neoplastic nodule, dosed 104 weeks, study length 106 weeks): 68 mg/kg/day
TD50 (rat, strain Fischer 344, males, by gavage, site: liver, lesion: neoplastic nodule, dosed 104 weeks, study length 106 weeks): 76 mg/kg/day
TD50 (rat, strain Fischer 344, males, by gavage, site: stomach, lesion: squamous-cell carcinoma, dosed 104 weeks, study length 106 weeks): 213 mg/kg/day
TD50 (rat, strain Fischer 344, males, in feed, site: liver, lesion: hepatocellular adenoma, dosed 104 weeks, study length 104 weeks): 100 mg/kg/day
TD50 (rat, strain Fischer 344, males, in feed, site: liver, lesion: hepatocellular carcinoma, dosed 104 weeks, study length 104 weeks): 1360 mg/kg/day
carcinogen call (rat, strain Fischer 344, males, in feed, site: stomach, lesion: one or several types, types not named, dosed 52 weeks, study length 52 weeks): negative (inactive)
carcinogen call (rat, strain Fischer 344, males, inhaled, site: any site (literature study), lesion: one or several types, types not named, dosed 52 weeks, study length 52 weeks): negative (inactive)
carcinogen call (rat, strain Fischer 344, males, inhaled, site: any site (literature study), lesion: several types, types named in the paper, dosed 105 weeks, study length 105 weeks): negative (inactive)
carcinogen call (rat, strain Fischer 344, males, inhaled, site: liver, lesion: hepatocellular adenoma, dosed 105 weeks, study length 105 weeks): negative (inactive)

From PubChem BioAssay AID1745844 (Carcinogenic Potency Database (CPDB), 2022)
